Assay results as given in patent publication US9360486B2, “Allergen fragments” (Biomay AG, priority 2007, dated 2016).

System: Amb a 1-specific T cell lines (TCL)
Experiment: T cell epitope mapping of Amb a 1.3: proliferation (3H-thymidine uptake) of TCL stimulated with synthetic peptides
Format: cell-based, human
Details: for No. positive patients SI > 3 / No. positive patients SI > 5 / % (positive patients SI > 3) / % (positive patients SI > 5): TCL from 48 ragweed pollen-allergic patients, peptide 5 μg/ml; for No. positive patients SI > 3 / No. positive patients SI > 5: 3H-thymidine uptake after 48 hrs; for No. positive patients SI > 3 / % (positive patients SI > 3): stimulation index > 3; for No. positive patients SI > 5 / % (positive patients SI > 5): stimulation index > 5; for T cell activating region recognized by % of patients: classes of prevalence referring to SI>5, 48 TCL
How it was run: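 Amb a 1-specific TCL from ragweed-allergic patients, raised with ragweed extract or rAmb a 1.3, stimulated 48 h with 121 overlapping 12-mer peptides plus one C-terminal 13-mer (9-residue overlap) at 5 μg/ml. Proliferation by 3H-thymidine uptake; SI against the mean cpm of the ten least stimulating peptides, epitope when SI ≥3.0.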

Row | Sequence | reactivity with T cells isolated from allergic individuals | No. positive patients SI > 3 | No. positive patients SI > 5 | % (positive patients SI > 3) [%] | % (positive patients SI > 5) [%] | T cell activating region recognized by % of patients | T cell reactivity with samples from individuals suffering from ragweed pollen allergy
1 | PTILCQGNRFLA (Amb a 1 fragment) [Peptide 94] | reactivity with T cells | 11 | 9 | 22.9 | 18.8 | recognized by 18.8% | 
2 | PVQSAGMIPAEP (Amb a 1 fragment) [Peptide 114] | reactivity with T cells | 8 | 5 | 16.7 | 10.4 |  | 
3 | PVQSAGMIPAEPGEA (Amb a 1 fragment) [Peptide 114-115] | reactivity with T cells |  |  |  |  | recognized by 35.4% | 
4 | QACEAYNIIDKC (Amb a 1 fragment) [Peptide 7] |  | 1 | 0 | 2.1 | 0.0 |  | 
5 | QELVVNSDKTID (Amb a 1 fragment) [Peptide 36] | reactivity with T cells | 14 | 12 | 29.2 | 25.0 |  | 
6 | QELVVNSDKTIDGRG (Amb a 1 fragment) [Peptide 36-37] | reactivity with T cells |  |  |  |  | recognized by 25.0% | 
7 | QGFAKGTYGGKW (Amb a 1 fragment) [Peptide 17] |  | 2 | 1 | 4.2 | 2.1 |  | 
8 | QIKKNVLARTGT (Amb a 1 fragment) [Peptide 99] | reactivity with T cells | 8 | 4 | 16.7 | 8.3 |  | 
9 | QIWIDHCSLSKS (Amb a 1 fragment) [Peptide 61] | reactivity with T cells | 29 | 24 | 60.4 | 50.0 |  | 
10 | QNRPLWIIFKND (Amb a 1 fragment) [Peptide 30] | reactivity with T cells | 11 | 9 | 22.9 | 18.8 |  | 
11 | QNRPLWIIFKNDMVI (Amb a 1 fragment) [Peptide 30-31] | reactivity with T cells |  |  |  |  | recognized by 20.8% | 
12 | RCRFGFFQVVNN (Amb a 1 fragment) [Peptide 85] |  | 4 | 1 | 8.3 | 2.1 |  | 
13 | RMPRCRFGFFQV (Amb a 1 fragment) [Peptide 84] |  | 3 | 1 | 6.3 | 2.1 |  | 
14 | RQASDGDTINVA (Amb a 1 fragment) [Peptide 56] |  | 1 | 1 | 2.1 | 2.1 |  | 
15 | RSLQACEAYNII (Amb a 1 fragment) [Peptide 6] |  | 1 | 0 | 2.1 | 0.0 |  | 
16 | RWGTYAIGGSSA (Amb a 1 fragment) [Peptide 90] | reactivity with T cells | 5 | 3 | 10.4 | 6.3 |  | 
17 | SAEGVGEILPSV (Amb a 1 fragment) [Peptide 1] |  | 2 | 0 | 4.2 | 0.0 |  | 
18 | SAGMIPAEPGEA (Amb a 1 fragment) [Peptide 115] | reactivity with T cells | 18 | 17 | 37.5 | 35.4 |  | 
19 | SAGVLSCRPGAPC (Amb a 1 fragment) [Peptide 121] | reactivity with T cells | 6 | 2 | 12.5 | 4.2 |  | 

Row | Sequence | reactivity with T cells isolated from allergic individuals | No. positive patients SI > 3 | No. positive patients SI > 5 | % (positive patients SI > 3) [%] | % (positive patients SI > 5) [%] | T cell activating region recognized by % of patients | T cell reactivity with samples from individuals suffering from ragweed pollen allergy
20 | SDGDTINVAGSS (Amb a 1 fragment) [Peptide 57] |  | 0 | 0 | 0.0 | 0.0 |  | 
21 | SDKTIDGRGVKV (Amb a 1 fragment) [Peptide 38] | reactivity with T cells | 13 | 11 | 27.1 | 22.9 |  | 
22 | SDKTIDGRGVKVEIINGG (Amb a 1 fragment) [Peptide 38-40] | reactivity with T cells |  |  |  |  | recognized by 33.3% | 
23 | SDPVLTPVQSAG (Amb a 1 fragment) [Peptide 112] | reactivity with T cells | 7 | 3 | 14.6 | 6.3 |  | 
24 | SKAILLGADDTH (Amb a 1 fragment) [Peptide 73] |  | 4 | 2 | 8.3 | 4.2 |  | 
25 | SKSFDGLVDVTL (Amb a 1 fragment) [Peptide 64] |  | 3 | 1 | 6.3 | 2.1 |  | 
26 | SSAPTILCQGNR (Amb a 1 fragment) [Peptide 93] | reactivity with T cells | 6 | 4 | 12.5 | 8.3 |  | 
27 | TDNVDQRMPRCR (Amb a 1 fragment) [Peptide 82] |  | 3 | 2 | 6.3 | 4.2 |  | 
28 | TGTGAAESMAWN (Amb a 1 fragment) [Peptide 102] | reactivity with T cells | 9 | 6 | 18.8 | 12.5 |  | 
29 | TIDGRGVKVEII (Amb a 1 fragment) [Peptide 39] | reactivity with T cells | 19 | 16 | 39.6 | 33.3 |  | 
30 | TQQSKAILLGAD (Amb a 1 fragment) [Peptide 72] |  | 4 | 2 | 8.3 | 4.2 |  | 
31 | TSGSDPVLTPVQ (Amb a 1 fragment) [Peptide 111] | reactivity with T cells | 16 | 11 | 33.3 | 22.9 |  | 
32 | TSNLDDDVANPK (Amb a 1 fragment) [Peptide 23] |  | 2 | 1 | 4.2 | 2.1 |  | 
33 | TYAIGGSSAPTI (Amb a 1 fragment) [Peptide 91] | reactivity with T cells | 13 | 11 | 27.1 | 22.9 | recognized by 22.9% | high T cell reactivity
34 | TYGGKWGDVYTV (Amb a 1 fragment) [Peptide 19] |  | 2 | 0 | 4.2 | 0.0 |  | 
35 | VAFNMFTDNVDQ (Amb a 1 fragment) [Peptide 80] | reactivity with T cells | 10 | 6 | 20.8 | 12.5 |  | 
36 | VAFNMFTDNVDQRMP (Amb a 1 fragment) [Peptide 80-81] | reactivity with T cells |  |  |  |  | recognized by 12.5% | 
37 | VDQRMPRCRFGF (Amb a 1 fragment) [Peptide 83] | reactivity with T cells | 10 | 8 | 20.8 | 16.7 | recognized by 16.7% | 
38 | VKVEIINGGLTL (Amb a 1 fragment) [Peptide 41] | reactivity with T cells | 5 | 1 | 10.4 | 2.1 |  | 
